The test system of series [1] is SARS-CoV-2 (USA_WA01/2020) in Vero E6 cells. The series can be described thus: Antiviral assay in SARS-CoV-2-infected Vero E6 cells. Type of series: cell-based. The conditions noted are these: read-out: Antiviral EC50, MOI 0.01, 72 h, cell proliferation.
Series [2] has as its target T1, SARS-CoV-2 M^pro (Severe acute respiratory syndrome coronavirus 2, UniProt P0DTD1). In words: Preincubation dilution experiment. Type of series: biochemical.
Series [3] concerns the target T1, SARS-CoV-2 M^pro. In words: Steady-state enzyme kinetics, inhibition mechanism. It is filed as biochemical.
The subject of series [4] is SARS-CoV-2 USA-WA1/2020 in human iPSC-derived lung organoids.
The mark [5] stands for this setting: 10 μM preincubation 30 min, 10× dilution.

Entries after “also recorded” stand apart in the source; their conditions may differ. Where two headings read alike, the source gives them in different places.

For “2-(4-Chlorophenyl)benzo[d][1,2]selenazol-3(2H)-one [Compound E15]”, in series [1], the EC50 was 11.2 ± 1.3 µM. Regarding `O=c1c2ccccc2[se]n1-c1ccc(C(F)(F)F)cc1` [Compound E04, 2-(4-(Trifluoromethyl)phenyl)benzo[d][1,2]selenazol-3(2H)-one], the “type of inhibition from preincubation dilution” value (“type of inhibition” below) at SARS-CoV-2 M^pro [2] (setting [5]) is “rapidly reversible inhibitor”. Moreover, the mechanism of inhibition entry on SARS-CoV-2 M^pro [3] (0.5-10 μM inhibitor, 1.5-30 μM substrate, global fit to mixed model) is listed as “likely competitive inhibitors”. In the case of `COc1ccc(Cn2[se]c3ccccc3c2=O)c(OC)c1` [Compound E07, 2-(2,4-Dimethoxybenzyl)benzo[d][1,2]selenazol-3(2H)-one], the “type of inhibition” value at SARS-CoV-2 M^pro [2] (setting [5]) is “reversible covalent inhibitor”. The same measure, in the same setting: then `O=c1c2ccccc2[se]n1-c1cccc(Cl)c1` [Compound E19, 2-(3-Chlorophenyl)benzo[d][1,2]selenazol-3(2H)-one], with “rapidly reversible inhibitor”.

As to `N#Cc1cccc(-n2[se]c3ccccc3c2=O)c1` [Compound E25, 3-(3-Oxobenzo[d][1,2]selenazol-2(3H)-yl)benzonitrile], the “type of inhibition” value on SARS-CoV-2 M^pro [2] (setting [5]) is “some recovery of the enzymatic activity but not a complete recovery; also recorded: reversible covalent inhibitor”. Consider `O=c1c2ccccc2[se]n1-c1cc(Cl)cc(Cl)c1` [Compound E20, 2-(3,5-Dichlorophenyl)benzo[d][1,2]selenazol-3(2H)-one], for which, on SARS-CoV-2 M^pro [2] (setting [5]), the “type of inhibition” value was “reversible covalent inhibitor”. On to `O=c1c2ccccc2[se]n1-c1cccc(C(F)(F)F)c1` [Compound E24, 2-(3-(Trifluoromethyl)phenyl)benzo[d][1,2]selenazol-3(2H)-one], for which, in series [4], the “reduction of viral RNA levels, intracellular fraction” value was roughly 50% and the “reduction of viral RNA levels, supernatant fraction” value is roughly 50%. Moreover, in series [4] (5 μM, 72 h), the “toxicity toward the organoids” value is “no observable toxicity”. Regarding `O=c1c2ccccc2[se]n1-c1ccccc1` [Compound E01, 2-Phenylbenzo[d][1,2]selenazol-3(2H)-one, reference compound], the “type of inhibition” value at SARS-CoV-2 M^pro [2] is “reversible covalent inhibitor”. Besides, the mechanism of inhibition entry on SARS-CoV-2 M^pro [3] was “likely competitive inhibitors”.

Source of the values: article PMC8491550 (Journal of Medicinal Chemistry, 2021).
